Reference: patent US20030198659A1, “Fibrous pest control” (priority 2001, published 2003)

Columns and labels:
D. radicum = test: Fibers+optical brightener/cabbage maggot field-cage experiment; type: in vivo, Delia radicum; settings: rate 0.033 kg ai/100-m row
Excerpt: Fibers+optical brightener/cabbage maggot field-cage experiment. Optical (fluorescent) brighteners are widely used in paints, fabrics, plastics and detergents, wherein they enhance the apparent brightness of the material by absorbing UV radiation and emitting light in the blue visual spectrum (Martinez et al. 2000). These brighteners were feasible to use with our existing technology and could potentially increase fiber effectiveness. Thus in mid-May 2000, we tested the efficacy of optical brighteners added to EVA fibers against cabbage maggots in four large (3.7×3.7×1.8-m) Lumite® field cages. The experiment was a randomized complete block design with four replicates (cages).
Within each cage, six rows (3-m long) were formed about 0.3-m apart by hand plowing. Greenhouse-grown two-leaf stage broccoli cv ‘Southern Comet’ was transplanted into the 6 rows within each cage at a plant spacing of 15 cm. One row of broccoli represented a single treatment within each cage. […]
On May 21 , approximately 175 D. radicum pupae were released into each of the four cages and 10% sucrose solution was provided as a food source for emerging adults. […] Total number of larvae and pupae per plant was recorded.

Silverleaf Whiteflies = test: Greenhouse no choice oviposition of whiteflies on squash; type: in vivo, Bemisia argentifolii; settings: spun sucrose trial
Description: Whiteflies were tested with a “No Choice” protocol using single treated and untreated summer squash plants var. “Seneca.” Two liter, polyethylene soda container arenas holding a single squash plant in a potting soil mixture were used for whitefly studies. Ten mating pairs of whiteflies were introduced into each arena for all studies. Up to forty arenas, depending on the treatment parameters of a given trial, were run simultaneously under identical ambient conditions. Ambient temperature and time of day were tracked during greenhouse trials. […] Counts were made using a binocular dissecting scope. […] While EVA, graphite and PVA fibers were relatively stable in greenhouse studies, the sucrose fibers were quickly degraded by moisture and formed a sugar coating of the leafs surface with numerous raised and stable sugar droplets. This was an expected result and the efficacy of this fiber application was worthy of testing.

| SMILES | D. radicum larvae per 3-m row of broccoli (D. radicum) | Total # of eggs (total mean number of eggs/plant) (Silverleaf Whiteflies) | Total # of eggs (total mean number of eggs/plant) (Silverleaf Whiteflies; listed as sucrose) |
| --- | --- | --- | --- |
| CCOP(=S)(OCC)Oc1nc(Cl)c(Cl)cc1Cl [Chlorpyrifos drench, chlorpyrifos] | 6.0 ± 2.3 | – | – |
| OC[C@H]1O[C@@](CO)(O[C@H]2O[C@H](CO)[C@@H](O)[C@H](O)[C@H]2O)[C@@H](O)[C@@H]1O [Sugar, sucrose] | – | 5.867 | 5.87±1.96 |
